Assay results published in patent US9162979B2, “1,5-Diary1-2-alkylpyrrole-3-substituted nitro esters, selective COX-2 inhibitors and nitric oxide donors” (ROTTAPHARM BIOTECH S.R.L., priority 2010, dated 2015).
Where a name gives a salt, the structure may show the parent alone.

Key:
[1] = test system: isolated rings of thoracic aorta; assay: Evaluation of release of NO: vasorelaxing activity on endothelium-denuded aortic rings contracted with KCl; parameters: species or system rat; conditions: for Emax: relative to contractile tone induced by 20 mM KCl, 1 nM-10 μM, read-out: NO release properties Emax (maximum vasorelaxing effect)
Protocol: The activity of the compounds was evaluated on isolated rings of thoracic aorta of normotensive male Wistar rats (250-350 g). After light anaesthesia with ether, the rats were sacrificed by cervical dislocation and exsanguination. The aortas were immediately excised, extraneous tissues were removed and the endothelial layer was removed by gently rubbing the surface with a hypodermic needle. Rings of aorta with a width of 5 mm were suspended, with a preload of 2 g, in 20-ml organ baths, containing a solution of “Tyrode” (composition of the saline solution in mM: NaCl 136.8; KCl 2.95; CaCl2 1.80; MgSO4 1.05; NaH2PO4 0.41; NaHCO3 11.9; glucose 5.5), thermostatically controlled at 37° C. and kept in an atmosphere of O2 (95%) and CO2 (5%). […] were recorded by means of an isometric transducer (FTO3 Erba), connected to a microdynamometer (Buxco Electronics).
60 minutes after preparation, removal of the endothelium was confirmed by acetylcholine (ACH) (10 μM) treatment of the vascular rings pre-contracted with KCl (20 mM). Relaxation of less than 10% of the contraction induced by KCl was considered as representative of acceptable removal of the endothelial layer, whereas organs displaying relaxation ≧10% were discarded. 40 minutes after confirmation of complete removal of the endothelium, the aortas were contracted by treatment with a single dose of KCl (20 mM) and after the contraction reached a stable plateau, increasing cumulative concentrations (with progressive increments of 3 times) of the test compounds (1 nM-10 μM) were added. It was found from preliminary experiments that the contraction induced by KCl (20 mM) remained stable in a tonic state for at least 40 minutes. The same experiments were performed in the presence of a well-known inhibitor of guanylate cyclase: ODQ 1 μM, which was incubated in aorta preparations after confirmation of removal of the endothelium.
Analysis of the results. The vasorelaxing activity was evaluated as a percentage (%) relative to the contractile tone induced by 20 mM KCl. The pharmacodynamic efficacy parameter (Emax) corresponds to the maximum vasorelaxing effect induced by the molecule tested, expressed as percentage relative to the contractile tone induced by 20 mM KCl. When the limit concentration of 10 μM (the highest concentration administered) of the test compounds has not reached the maximum effect, the efficacy parameter (Emax) corresponds to the vasorelaxing effect induced by the limit concentration (expressed as percentage relative to the contractile tone induced by 20 mM KCl). The pharmacodynamic parameter of potency of the compounds was expressed as pIC50 calculated as the negative logarithm of the molar concentration of test compound that reduces the contractile tone induced by 20 mM KCl by half. […] The parameters of efficacy and potency were expressed as mean±standard error, for 5-10 experiments. The experimental data were analysed by the program GraphPad Prism 3.0.

COX-2 = COX-2 (Mus musculus (Mouse), UniProt Q05769); assay: Evaluation of COX-2 activity: PGE2 production in LPS-stimulated J774 cells; assay type: cell-based, murine; conditions: J774 cells stimulated 24 hours with LPS 10 μg/mL; PGE2 by radio-immunological assay; read-out: Cyclooxygenase inhibition COX-2 IC50
Chain of COX-2 (Q05769 18-604): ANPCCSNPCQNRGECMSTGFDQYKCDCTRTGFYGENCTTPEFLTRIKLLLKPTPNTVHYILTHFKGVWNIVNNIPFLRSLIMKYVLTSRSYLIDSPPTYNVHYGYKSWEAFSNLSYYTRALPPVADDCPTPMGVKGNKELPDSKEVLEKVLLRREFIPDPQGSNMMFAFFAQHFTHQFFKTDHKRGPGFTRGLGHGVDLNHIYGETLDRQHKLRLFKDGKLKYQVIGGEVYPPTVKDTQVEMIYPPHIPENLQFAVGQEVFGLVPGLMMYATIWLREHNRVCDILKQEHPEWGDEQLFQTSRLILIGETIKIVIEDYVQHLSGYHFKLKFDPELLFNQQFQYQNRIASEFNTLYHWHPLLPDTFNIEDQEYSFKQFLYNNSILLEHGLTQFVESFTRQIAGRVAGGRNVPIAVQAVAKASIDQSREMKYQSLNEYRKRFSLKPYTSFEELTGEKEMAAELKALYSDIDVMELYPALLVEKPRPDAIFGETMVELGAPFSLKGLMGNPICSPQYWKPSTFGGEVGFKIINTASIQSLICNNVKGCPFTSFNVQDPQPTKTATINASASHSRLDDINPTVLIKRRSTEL
Protocol: The murine monocyte/macrophage cell line J774 is grown in Dulbecco's modified Eagle's medium (DMEM), enriched with glutamine (2 mM), HEPES (25 mM), penicillin (100 u/mL), streptomycin (100 μg/mL), 10% of fetal bovine serum (FBS) and 1.2% of sodium pyruvate. […] Just before the experiments, the culture medium is replaced with fresh medium without FBS to avoid interference during the radio-immunological phase and the cells are stimulated as described below.
The supernatants are collected for evaluating, by means of radio-immunological assays, the amount of PGE2 produced.
In each group of experiments, wells were used in triplicate for the different treatment conditions. […] The data were evaluated using the sigmoidal dose-response equation (variable slope) (GraphPad software). IC50 and the 95% precision intervals were calculated with the program GraphPad Instat (GraphPad software).

SMILES | melting point [°C] | IC50 (COX-2) [nM] | further results
Cc1c(CC(=O)OCCCCO[N+](=O)[O-])cc(-c2ccc(S(C)(=O)=O)cc2)n1-c1ccc(F)cc1 [Example 11, 4-(Nitrooxy)butyl-2-[1-(4-fluorophenyl)-2-methyl-5-(4-methylsulphonylphenyl)-1H-pyrrol-3-yl]acetate] | 102 to 104 | – | Emax ([1]; Rattus norvegicus): 40 ± 8%
Cc1c(CC(=O)OCCCO[N+](=O)[O-])cc(-c2ccc(S(C)(=O)=O)cc2)n1-c1ccc(F)cc1 [Example 7, 3-(Nitrooxy)propyl 2-[1-(4-fluorophenyl)-2-methyl-5-(4-methylsulphonylphenyl)-1H-pyrrol-3-yl]acetate] | 126 to 128 | – | –
Cc1c(C(N)C(=O)OCCCO[N+](=O)[O-])cc(-c2ccc(S(C)(=O)=O)cc2)n1-c1cccc(F)c1 (racemic) [Example 19, (R,S)-3-(Nitrooxy)propyl-[2-amino-2-[1-(3-fluorophenyl)-2-methyl-5-(4-methylsulphonylphenyl)-1H-pyrrol-3-yl]]-acetate] | 117 | – | –
Cc1c(CCOCCCO[N+](=O)[O-])cc(-c2ccc(S(C)(=O)=O)cc2)n1-c1cccc(F)c1 (as salt: nitrate) [Example 42, 3-[2-(1-(3-Fluorophenyl)-2-methyl-5-(4-methylsulphonylphenyl)-1H-pyrrol-3-yl)ethoxy]propyl Nitrate] | 111 to 113 | – | –
Cc1c(CC(=O)NCCCO[N+](=O)[O-])cc(-c2ccc(S(C)(=O)=O)cc2)n1-c1ccc(F)cc1 [Example 26, N-[(3-Nitroxy)propyl]-2-[1-(4-fluorophenyl)-2-methyl-5-(4-methylsulphonylphenyl)-1H-pyrrol-3-yl]acetamide] | 127 | – | –
Cc1c(CC(=O)NCCO)cc(-c2ccc(S(C)(=O)=O)cc2)n1-c1ccc(F)cc1 [Example 23-II, N-[(2-Hydroxy)ethyl]-2-[1-(4-fluorophenyl)-2-methyl-5-(4-methylsulphonylphenyl)-1H-pyrrol-3-yl]acetamide] | 99 | 300 | –
Cc1c(CC(=O)OCCO)cc(-c2ccc(S(C)(=O)=O)cc2)n1-c1ccc(F)cc1 [Example 2-II, 2-Hydroxyethyl-[2-(1-(4-fluorophenyl)-2-methyl-5-(4-methylsulphonylphenyl)-1H-pyrrol-3-yl)]acetate] | 129 to 131 | 89 | –
Cc1c(CCOCCCO[N+](=O)[O-])cc(-c2ccc(S(C)(=O)=O)cc2)n1-c1ccccc1 (as salt: nitrate) [Example 40, 3-[2-[2-(1-Phenyl-2-methyl-5-(4-methylsulphonylphenyl)-1H-pyrrol-3-yl)ethoxy]propyl Nitrate] | 131 to 133 | – | –
Cc1c(C(N)C(=O)OCCCCO[N+](=O)[O-])cc(-c2ccc(S(C)(=O)=O)cc2)n1-c1cccc(F)c1 (racemic) [Example 21, (R,S)-4-(Nitrooxy)butyl-[2-amino-2-[1-(3-fluorophenyl)-2-methyl-5-(4-methylsulphonylphenyl)-1H-pyrrol-3-yl]]-acetate] | 110 | – | –
COc1ccc(-n2c(-c3ccc(S(C)(=O)=O)cc3)cc(CC(=O)OCCCCO[N+](=O)[O-])c2C)cc1 [Example 13, 4-(Nitrooxy)butyl-2-[1-(4-methoxyphenyl)-2-methyl-5-(4-methylsulphonylphenyl)-1H-pyrrol-3-yl]acetate] | 109 | 550 | –
Cc1c(CCOCCO[N+](=O)[O-])cc(-c2ccc(S(C)(=O)=O)cc2)n1-c1cccc(F)c1 (as salt: nitrate) [Example 38, 2-[2-[2-(1-(3-Fluorophenyl)-2-methyl-5-(4-methylsulphonylphenyl)-1H-pyrrol-3-yl]ethoxy]ethyl Nitrate] | 94 to 97 | – | –
Cc1c(CCOCCO[N+](=O)[O-])cc(-c2ccc(S(C)(=O)=O)cc2)n1-c1ccc(F)c(F)c1 (as salt: nitrate) [Example 39, 2-[2-[2-(1-(3,4-Difluorophenyl)-2-methyl-5-(4-methylsulphonylphenyl)-1H-pyrrol-3-yl]ethoxy]ethyl Nitrate] | 93 to 96 | – | –
Cc1c(C(N)C(=O)OCCO)cc(-c2ccc(S(C)(=O)=O)cc2)n1-c1cccc(F)c1 (racemic) [Example 17-II, (R,S)-2-(Hydroxy)ethyl-[2-amino-2-[1-(3-fluorophenyl)-2-methyl-5-(4-methylsulphonylphenyl)-1H-pyrrol-3-yl]]-acetate] | 102 | – | –
Cc1c(CC(=O)NCCCO)cc(-c2ccc(S(C)(=O)=O)cc2)n1-c1cccc(F)c1 [Example 27-II, N-[(3-Hydroxy)propyl]-2-[1-(3-fluorophenyl)-2-methyl-5-(4-methylsulphonylphenyl)-1H-pyrrol-3-yl]acetamide] | 102 | 14 | –
Cc1c(CC(=O)NCCO[N+](=O)[O-])cc(-c2ccc(S(C)(=O)=O)cc2)n1-c1ccc(F)cc1 [Example 23, N-[(2-Nitroxy)ethyl]-2-[1-(4-fluorophenyl)-2-methyl-5-(4-methylsulphonylphenyl)-1H-pyrrol-3-yl]acetamide] | 135 | 240 | IC50 ([1]; Rattus norvegicus, concentration reducing contractile tone induced by 20 mM KCl by half, read-out: NO release properties pIC50 (vasorelaxing potency) (converted)): 4900 nM; Emax ([1]; Rattus norvegicus): 68 ± 6%; NO release properties pIC50 (vasorelaxing potency) ([1]; concentration reducing contractile tone induced by 20 mM KCl by half): 5.31 ± 0.05
Cc1c(C(N)C(=O)OCCO)cc(-c2ccc(S(C)(=O)=O)cc2)n1-c1ccc(F)cc1 (racemic) [Example 16-II, (R,S)-2-(Hydroxy)ethyl-[2-amino-2-[1-(4-fluorophenyl)-2-methyl-5-(4-methylsulphonylphenyl)-pyrrol-3-yl]]-acetate] | 102 | – | –
Cc1c(CC(=O)OCCO)cc(-c2ccc(S(C)(=O)=O)cc2)n1-c1cccc(F)c1 [Example 3-II] | 115 | 85 | –
Cc1c(CCOCCCO[N+](=O)[O-])cc(-c2ccc(S(C)(=O)=O)cc2)n1-c1ccc(F)cc1 (as salt: nitrate) [Example 41, 3-[2-[2-(1-(4-Fluorophenyl)-2-methyl-5-(4-methylsulphonylphenyl)-1H-pyrrol-3-yl)]ethoxy]propyl Nitrate] | 114 to 116 | – | –
COc1ccc(-n2c(-c3ccc(S(C)(=O)=O)cc3)cc(CC(=O)OCCO)c2C)cc1 [Example 4-II, 2-(Hydroxy)ethyl-[1-(4-methoxyphenyl)-2-methyl-5-(4-methylsulphonylphenyl)-1H-pyrrol-3-yl]-acetate] | 105 | 1100 | –
Cc1c(CC(=O)NCCCO)cc(-c2ccc(S(C)(=O)=O)cc2)n1-c1ccc(F)cc1 [Example 26-II, N-[(3-Hydroxy)propyl]-2-[1-(4-fluorophenyl)-2-methyl-5-(4-methylsulphonylphenyl)-1H-pyrrol-3-yl]acetamide] | 105 | 68 | –
Cc1c(CC(=O)NCCCO[N+](=O)[O-])cc(-c2ccc(S(C)(=O)=O)cc2)n1-c1cccc(F)c1 [Example 27, N-[(3-Nitroxy)propyl]-2-[1-(3-fluorophenyl)-2-methyl-5-(4-methylsulphonylphenyl)-1H-pyrrol-3-yl]acetamide] | 125 | – | –
Cc1c(CCOCCCO)cc(-c2ccc(S(C)(=O)=O)cc2)n1-c1ccc(F)cc1 [Example 41-II, 3-[2-[2-(1-(4-Fluorophenyl)-2-methyl-5-(4-methylsulphonylphenyl)-1H-pyrrol-3-yl)]ethoxy]propanol] | 100 to 102 | 940 | –
